Structures are written as SMILES. pEC50: −log10 of the molar value.

What all share (assay type): functional, cell-based
For one assay, the system named is MCF7. The assay can be described thus: Cytotoxicity against human MCF7 cells by calcein AM/[…] fluorometric detection.
Assay [1] in a line: Cytotoxicity against mouse P388D1 cells by calcein AM/[…] fluorometric detection.
The test system of a further assay is A549. Put plainly: Cytotoxicity against human A549 cells by calcein AM/[…] fluorometric detection.
A further assay deals with HCT-15. Put plainly: Cytotoxicity against human HCT15 cells by calcein AM/[…] fluorometric detection.
The subject of the next assay is DU-145. The assay can be described thus: Cytotoxicity against human Du145 cells by calcein AM/[…] fluorometric detection.
The subject of another assay is HT-29. Put plainly: Cytotoxicity against human HT29 cells by calcein AM/[…] fluorometric detection.

Take `C/C=C/C=C/c1cc2cc3c(c(O)c2c(=O)[nH]1)[C@@]1(CC3)C(=O)c2c(O)c3c(c(O)c2C1=O)C(=O)C(OC)=CC3=O` [FDM A]: the pEC50 with MCF7 is 6.44; in assay [1] it was 7.30; with A549 it was 5.74; in the assay on HCT-15, 5.62; in the assay on DU-145, 5.57; in the assay with HT-29 it was 6.24.

Consider `C/C=C/C=C/c1cc2cc3c(c(O)c2c(=O)[nH]1)[C@@]1(CC3)C(=O)C(=O)c2c(c(O)c3c(O)c(OC)cc(O)c3c2O)C1=O` [FDM E], for which the pEC50 with MCF7 is 5.14; in assay [1], 6.77; in the assay on A549, 5.39; with HCT-15, 5.40; in the assay on DU-145, 5.09; with HT-29, 5.44.

The values above are taken from ChEMBL document CHEMBL1144789, “Identification of fredericamycin E from Streptomyces griseus: Insights into fredericamycin A biosynthesis highlighting carbaspirocycle formation” (J Nat Prod, 2008).
